Experimental findings from ChEMBL document CHEMBL1938373, “Structure-based design, synthesis and biological evaluation of N-pyrazole, N'-thiazole urea inhibitors of MAP kinase p38α” (Eur J Med Chem, 2012) are described below.

Calls of active or inactive are those of the source. The calls are words filed in the database; no cut-off is given here.

Test system in the first data set: not listed separately
The data set is described as follows: Solubility of the compound. In kind it is physicochemical.
Consider `O=C(Nc1ccc(Cl)c(C(F)(F)F)c1)Nc1nc(CCOCc2ccccc2)cs1`, for which the solubility result is given as “Insoluble”.

The target of the next data set is T1, Mitogen-activated protein kinase 14 (Homo sapiens, UniProt Q16539).
T1 sequence (Q16539 whole entry): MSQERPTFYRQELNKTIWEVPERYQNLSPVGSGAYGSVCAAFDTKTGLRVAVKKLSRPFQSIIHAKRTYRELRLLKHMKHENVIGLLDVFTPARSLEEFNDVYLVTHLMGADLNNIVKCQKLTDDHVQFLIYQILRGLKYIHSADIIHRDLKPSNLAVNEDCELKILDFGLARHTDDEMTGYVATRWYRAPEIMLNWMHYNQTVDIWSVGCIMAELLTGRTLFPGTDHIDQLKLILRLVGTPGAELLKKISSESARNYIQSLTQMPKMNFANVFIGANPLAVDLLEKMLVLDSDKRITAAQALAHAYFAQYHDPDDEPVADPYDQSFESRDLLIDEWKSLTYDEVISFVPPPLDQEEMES
For `O=C(O)Cc1cccc(-n2nc(C3CC3)cc2NC(=O)Nc2nc(CCOCc3ccccc3)cs2)c1`, binding was characterised by a dissociation constant (Kd) of 14700 nM.

With `CC(C)(C)c1cc(NC(=O)Nc2nc(CCOCc3ccccc3)cs2)n(-c2cccc(CC(=O)O)c2)n1`, the Kd (commonly the free concentration of one partner at which half of the binding sites on the other are occupied at equilibrium, for simple one-to-one binding) is 920 nM.

`Cc1ccc(-n2nc(C(C)(C)C)cc2NC(=O)Nc2nccs2)cc1` yielded a dissociation constant (Kd) of 990 nM. The Kd values of the last two molecules are within 1.5-fold of each other.

`CC(C)(C)c1cc(NC(=O)Nc2nccs2)n(-c2ccc(CC(=O)O)cc2)n1` came in with a Kd of 196 nM.

`NC(COCc1ccccc1)c1csc(NC(=O)Nc2ccc(Cl)c(F)c2)n1` (stereo not drawn) showed a dissociation constant (Kd) of 13400 nM.

Regarding `Cc1ccc(-n2nc(C(C)(C)C)cc2NC(=O)Nc2nc(CCOCc3ccccc3)cs2)cc1`, binding was put at a Kd of 382 nM.

The molecule `CCOC(=O)Cc1ccc(-n2nc(C(C)(C)C)cc2NC(=O)Nc2nccs2)cc1` registered a Kd of 675 nM.

In the case of `O=C(O)Cc1ccc(-n2nc(C3CCCC3)cc2NC(=O)Nc2nc(CCOCc3ccccc3)cs2)cc1`, binding was put at a Kd of 901 nM.

Molecule `Cc1ccc(-n2nc(C(C)(C)C)cc2NC(=O)Nc2nc(CCOCc3ccncc3)cs2)cc1` came in with a Kd of 586 nM.

In the case of `Cc1ccc(-n2nc(C(C)(C)C)cc2NC(=O)Nc2nc(CCOCc3ccc(F)cc3)cs2)cc1`, the Kd stood at 303 nM.

Regarding `CC(C)(C)c1cc(NC(=O)Nc2nc(CCOCc3ccccc3)cs2)n(-c2ccc(CC(=O)O)cc2)n1`, binding was characterised by a dissociation constant (Kd) of 287 nM. This Kd and that of the molecule before are within 1.5-fold of each other.

Regarding `O=C(O)Cc1cccc(-n2nc(C3CCCC3)cc2NC(=O)Nc2nc(CCOCc3ccccc3)cs2)c1`, the Kd worked out at 580 nM. This Kd is about 2-fold higher than that of the molecule before.

The target of the next data set is T1, Mitogen-activated protein kinase 14. Nature of the data set: Binding affinity to N-terminus His-tagged human p38alpha expressed in Escherichia coli BL21 DE3 at 1 nM to 10 uM after 5 hrs by fluorescence analysis.
Turning to `O=C(Nc1nc(CCOCc2ccccc2)cs1)c1cc(F)cc(N2CCOCC2)c1`, the result was inactive.

The target is the same in the next data set. The data set is described as follows: Inhibition of p38alpha-mediated MK2 phosphorylation in anisomysin-stimulated human HeLa cells after 2 hrs by immunoblot analysis. (In general: Immunoblotting shows a protein as a band on a membrane.)
In the case of `CCOC(=O)Cc1ccc(-n2nc(C(C)(C)C)cc2NC(=O)Nc2nccs2)cc1`, 6000 nM corresponded to half-maximal inhibition (IC50).

Another data set shares this target. Nature of the data set: Inhibition of N-terminus His-tagged human p38alpha expressed in Escherichia coli BL21 DE3 using GST-tagged ATF2 as substrate after 90 mins by HTRF assay. (Time-resolved FRET reads energy transfer from a long-lived donor to a nearby acceptor.)
Turning to `CC(C)(C)c1cc(NC(=O)Nc2nccs2)n(-c2ccc(CC(=O)O)cc2)n1`, the IC50 (usually the concentration needed to halve the response being measured) was 135 nM.

Take `CCOC(=O)Cc1ccc(-n2nc(C(C)(C)C)cc2NC(=O)Nc2nccs2)cc1`: the IC50 was found to be 639 nM. This IC50 lies about 4.7-fold higher than the previous one.

A further data set has the same target. The data set is described as follows: Inhibition of p38alpha-mediated MK2 phosphorylation in anisomysin-stimulated human HeLa cells at 0.5 to 50 uM after 2 hrs by immunoblot analysis. In kind it is cell-based.
In the case of `CC(C)(C)c1cc(NC(=O)Nc2nccs2)n(-c2ccc(CC(=O)O)cc2)n1`, the inhibition entry is “inactive”.
